≈ marks a conversion by molar mass, not a printed value. Like-named read-outs stand apart in the source and are kept apart here.
Tests used:
[1] = system: P. aeruginosa (PAO1); assay: MIC of conventional antibiotics alone; type: cell-based; settings: Pseudomonas aeruginosa
[2] = system: P. aeruginosa ATCC 27853; assay: Minimum inhibitory concentration (MIC), microplate dilution; type: cell-based; settings: Pseudomonas aeruginosa, ATCC27853; Table I; Mueller-Hinton medium, 37° C., 24 h
Description: (§1) A positive control (1940 μl of culture medium+40 μl of DMSO+20 μl of the bacterial suspension) from a defrosted biological strain (the preservation of the biological strains is carried out at −80° C. in glycerol). The strains used are S. aureus ATCC 25923, E. coli ATCC 25922, P. aeruginosa ATCC 27853, C. albicans CIP 1180-79 and E. faecalis CIP 103015.
(§2) The microorganisms were handled under a hood in the laboratory of L2 type and, before any handling operation, a UV cycle was programmed and only sterile material was used. […] The chemical molecules to be tested were prepared in a DMSO/methanol (50/50) mixture at a concentration of 5 mg/ml.
(§3) After incubating for 24 h, the optical density was measured using a spectrophotometer at 600 nm by withdrawing 100 μl of the bacterial suspension diluted in 900 μl of the sterile culture medium. This test required the use of a 96-well plate and the necessary volume of the microbial suspension to be inoculated was calculated for an OD corresponding to a value equal to 0.01 in each well. In this plate, the first line corresponded to the negative control (195 μl of sterile culture medium in each well), the second line to the positive control (inoculated culture medium with the addition of 2% of DMSO), the third line was charged twice with bacterial suspension, 8 μl of product to be tested was placed in each well. Subsequently, cascade half dilution was carried out starting from this line.
(§4) The first column was used as inhibition control. A sterile filter was subsequently placed on the microplate, allowing the passage of gases but not of contaminants. The microplate was incubated at 37° C. in a humid atmosphere for 24 h.
(§5) NB: The medium used is the Mueller-Hinton (MH) medium for the bacteria. All the tests were carried out in duplicate.
(§6) After incubation, the filter was replaced with a transparent film and subsequently reading of OD was carried out in an IEMS plate spectrophotometer at 620 nm. A calculation of the minimum inhibitory concentration (MIC) was carried out.

[3] = system: S. aureus ATCC 25923; assay: as above; type: cell-based; settings: Staphylococcus aureus, ATCC25923; Table I; Mueller-Hinton medium, 37° C., 24 h
Description: as §1, §2, §3, §4, §5, §6

[4] = system: E. coli ATCC 25922; assay: as above; type: cell-based; settings: Escherichia coli, ATCC25922
Description: (§7) A positive control (1940 μl of culture medium+40 μl of DMSO+20 μl of the bacterial suspension) from a defrosted biological strain (the preservation of the biological strains is carried out at −80° C. in glycerol).
as §2, §3, §4, §5, §6

[5] = system: S. aureus Methicillin-resistant; assay: as above; type: cell-based; settings: Staphylococcus aureus
Description: as §7, §2, §3, §4, §5, §6

[6] = system: S. faecalis; assay: as above; type: cell-based, E. faecalis CIP 103015; settings: Enterococcus faecalis; Table I; Mueller-Hinton medium, 37° C., 24 h
Description: as §1, §2, §3, §4, §5, §6

[7] = system: C. albicans; assay: as above; type: cell-based, C. albicans CIP 1180-79; settings: Candida albicans; Table I; 37° C., 24 h
Description: as §1, §2, §3, §4, §5, §6

[8] = system: CHO-K1 cells; assay: WST-1 cytotoxicity test; type: cell-based, Chinese hamster; settings: Cricetulus griseus, WST-1 test, 24 hours, concentration reducing cell viability by 50%
Description: The WST-1 test was used to measure the cytotoxic activity of the products. This is a colorimetric test which makes it possible to measure the viability and the degree of cell proliferation.
The WST-1 test was carried out on Chinese hamster ovary cells. The CHO-K1 cells (ATCC, USA) are kept cultured in McCoy's 5 A medium additivated with 10% of fetal calf serum, with 2 mM of L-glutamine and with a penicillin/streptomycin mixture (100 U/ml: 10 μg/ml). Incubating is carried out at 37° C. under an atmosphere enriched in CO2 (5%) and subculturing is carried out every two days.
The cells are transferred into 96-well plates (25 000 cells/ml) in complete McCoy's 5 A medium and are maintained at 37° C. for 24 h under a humid atmosphere enriched in CO2 (5%). Increasing concentrations of test products are added to the wells in duplicate tests and 8 growth controls containing the cells in the medium alone are included in each series of tests. After 24 hours at 37° C. (5% of CO2), the culture medium is removed, the cells are rinsed in phosphate buffer (PBS) and 50 μl of PBS containing 10% of WST-1 reactant are added to each well. After incubating at 37° C. for 20 minutes, the results are read by spectrophotometry at 450 nm.
The results are expressed in the form of dose-response relationships, modeled by a nonlinear regression analysis using the TableCurve software.

[9] = system: P. aeruginosa (PAO1); assay: Potentiating of doxycycline activity by aminosteroidal derivative; type: cell-based, Pseudomonas aeruginosa; settings: Doxycycline concentration used 2 μg/ml, 37° C., 24 h
Description: (§8) This method requires the use of a 96-well plate; 100 μl of a liquid culture medium are deposited in each well and then inoculated with the microbial suspension prepared above. The necessary volume to be inoculated is calculated for an OD of 0.01, which corresponds to approximately 5×10^6 bacteria in each well. In this plate, the first line corresponds to a negative control (200 μl of sterile culture medium in each well), the second line to a positive control (100 μl of sterile culture medium+100 μl of a bacterial suspension), the third line contains 192 μl of culture medium; 8 μl of aminosteroidal product to be tested are placed in each well. Subsequently, cascade dilution is carried out starting from this line. 8 μl of a doxycycline solution (1 mg dissolved in 20 ml) are subsequently added to each well of lines 3 to 8, in order to obtain a final concentration of antibiotic of 2 μg/ml. 92 μl of bacterial suspension are subsequently added to lines 3 to 8. The results (the determination of the MIC (2 μg/ml of doxycycline) in the presence of X μg/ml of aminosteroidal derivative) are read after incubating at 37° C. for 24 h in a humid atmosphere. After incubating at 37° C. for 24 h, 40 μl of nitrotetrazolium iodide are added to each well, making it possible to reveal the presence of living bacteria by coloring the medium pink.
(§9) The use of low amounts of aminosteroidal derivatives makes it possible to restore (to reduce) the necessary concentration of antibiotic to kill the strain under consideration.

[10] = system: P. aeruginosa (PAO1); assay: Potentiating of chloramphenicol activity by aminosteroidal derivative; type: cell-based, Pseudomonas aeruginosa; settings: Chloramphenicol concentration used 4 μg/ml
Description: as §8, with “8 μl of a doxycycline solution (1 mg dissolved in 20 ml) are subsequently added to each well of lines 3 to 8, in order to obtain a final concentration of antibiotic of 2 μg/ml.” left out, “The results (the determination of the MIC (2 μg/ml of doxycycline) in the presence of X μg/ml of aminosteroidal derivative) are read after incubating at 37° C. for 24 h in a humid atmosphere.” left out
as §9

[11] = Table I, Mueller-Hinton medium, 37° C., 24 h, read-out: MIC E. coli ATCC 25922
[12] = Table II, comparison with state of the art compounds, read-out: MIC E. coli
[13] = Table I, Mueller-Hinton medium, 37° C., 24 h
[14] = Table II, comparison with state of the art compounds

SMILES	MIC ([1]; PAO1) [µg/mL]	MIC [2] [µg/mL]	MIC [3] [µg/mL]	MIC [4, 11] [µg/mL]	MIC [4, 12] [µg/mL]	MIC [5, 13] [µg/mL]	MIC [5, 14] [µg/mL]	MIC [6] [µg/mL]	MIC [7] [µg/mL]	IC50 [8] [µM]	Concentration of compound necessary in order to restore the activity of the antibiotic under consideration: Doxycycline [9] [µg/mL]	Concentration of compound necessary in order to restore the activity of the antibiotic under consideration: Chloramphenicol [10] [µg/mL]	MIC ([1]; antibiotic alone, Gram-negative strain of P. aeruginosa (PAO1), read-out: MIC) [µg/mL]
O=C(N[C@H](CO)[C@H](O)c1ccc([N+](=O)[O-])cc1)C(Cl)Cl [chloramphenicol]	1020												
CC(C)CCC[C@@H](C)[C@H]1CCC2C3C(CC[C@@]21C)[C@@]1(C)CC[C@H](NCCN(CCN)CCN)C[C@@H]1C[C@H]3O (stereo partly drawn) [SA-6, 3β-(Tris(2-aminoethyl)amine)-7β-hydroxy-5α-cholestane]		40 (≈ 75.1 µM)	5 (≈ 9.38 µM)	20 (≈ 37.5 µM)	20 (≈ 37.5 µM)	5 (≈ 9.38 µM)	5 (≈ 9.38 µM)	2.5 (≈ 4.69 µM)	2.5 (≈ 4.69 µM)	46	2.5	20	
CC(C)CCC[C@@H](C)[C@H]1CCC2C3C(CC[C@@]21C)[C@@]1(C)CC[C@H](NCCCNCCCCNCCCN)C[C@@H]1C[C@@H]3O (stereo partly drawn) [SA-2, 3β-Spermino-7β-hydroxy-5α-cholestane]		32 (≈ 54.3 µM)	4 (≈ 6.79 µM)	32 (≈ 54.3 µM)	32 (≈ 54.3 µM)	2 (≈ 3.4 µM)	2 (≈ 3.4 µM)	2 (≈ 3.4 µM)	2 (≈ 3.4 µM)	50	4	16	
CC(C)[C@@H](CC[C@@H](C)[C@H]1CC[C@H]2[C@@H]3[C@H](O)C[C@H]4C[C@@H](NCCCNCCCCN)CC[C@]4(C)[C@H]3CC[C@]12C)OS(=O)(=O)O [Squalamine, squalamine]		20 (≈ 31.8 µM)	4 (≈ 6.37 µM)	12 (≈ 19.1 µM)		4 (≈ 6.37 µM)		4 (≈ 6.37 µM)	2 (≈ 3.18 µM)		1.75	1.75	
CC(C)CCC[C@@H](C)[C@H]1CCC2C3C(CC[C@@]21C)[C@@]1(C)CC[C@H](NCCCNCCCN)C[C@@H]1C[C@@H]3O (stereo partly drawn) [SA-3, 3β-Norspermidino-7β-hydroxy-5α-cholestane]		40 (≈ 77.2 µM)	5 (≈ 9.65 µM)	20 (≈ 38.6 µM)	20 (≈ 38.6 µM)	2.5 (≈ 4.83 µM)	2.5 (≈ 4.83 µM)	2.5 (≈ 4.83 µM)	2.5 (≈ 4.83 µM)	32	5	10	
CC(C)CCC[C@@H](C)[C@H]1CCC2C3C(CC[C@@]21C)[C@@]1(C)CC[C@H](NCCCNCCCCNCCCN)C[C@@H]1C[C@H]3O (stereo partly drawn) [SA-1, 3β-Spermino-7α-hydroxy-5α-cholestane]		32 (≈ 54.3 µM)	4 (≈ 6.79 µM)	16 (≈ 27.2 µM)	16 (≈ 27.2 µM)	2 (≈ 3.4 µM)	2 (≈ 3.4 µM)	2 (≈ 3.4 µM)	2 (≈ 3.4 µM)	15	4	16	
CC(C)CCC[C@@H](C)[C@H]1CCC2C3C(CC[C@@]21C)[C@@]1(C)CC[C@H](NCCCCN)C[C@@H]1C[C@H]3O (stereo partly drawn) [SA-5, 3β-(1,4-Diaminobutane)-7β-hydroxy-5α-cholestane]		32 (≈ 67.4 µM)	4 (≈ 8.42 µM)	32 (≈ 67.4 µM)	32 (≈ 67.4 µM)	4 (≈ 8.42 µM)	4 (≈ 8.42 µM)	4 (≈ 8.42 µM)	4 (≈ 8.42 µM)	15			
C[C@H]1c2cccc(O)c2C(=O)C2=C(O)[C@]3(O)C(=O)C(C(N)=O)=C(O)[C@@H](N(C)C)[C@@H]3[C@@H](O)[C@@H]21 [doxycycline]													40
CC(C)CCC[C@@H](C)[C@H]1CCC2C3C(CC[C@@]21C)[C@@]1(C)CC[C@H](NCCCN)C[C@@H]1C[C@H]3O (stereo partly drawn) [SA-4, 3β-(1,3-Diaminopropane)-7β-hydroxy-5α-cholestane]		32 (≈ 69.4 µM)	4 (≈ 8.68 µM)	32 (≈ 69.4 µM)	32 (≈ 69.4 µM)	2 (≈ 4.34 µM)	2 (≈ 4.34 µM)	2 (≈ 4.34 µM)	2 (≈ 4.34 µM)	9			

Reference: patent publication US10729701B2, “Compounds that are analogs of squalamine, used as antibacterial agents” (VIRBAC, priority 2015, dated 2020)
